From patent US20250320213A1, “Nitrogen-Containing Heterocyclic Compounds” (Pfizer Inc., priority 2024, published 2025)

target: T1, STAT6 (Homo sapiens, UniProt P42226); assay: STAT6 Reporter Luciferase Assay (IL-13 stimulated HaCaT keratinocyte NanoLuc reporter cells); format: cell-based; details: IL-13 stimulated HaCaT STAT6 NanoLuc reporter cells; read-out: Reporter EC50
T1 construct: stably transfected HaCaT keratinocyte cell line, which expresses NanoLuc luciferase reporter gene under the transcriptional control of the STAT6 responsive promoter; endogenous in cells; host or cells: HaCaT keratinocyte reporter cell line (stably transfected with a NanoLuc reporter)
T1 sequence (P42226 1-847): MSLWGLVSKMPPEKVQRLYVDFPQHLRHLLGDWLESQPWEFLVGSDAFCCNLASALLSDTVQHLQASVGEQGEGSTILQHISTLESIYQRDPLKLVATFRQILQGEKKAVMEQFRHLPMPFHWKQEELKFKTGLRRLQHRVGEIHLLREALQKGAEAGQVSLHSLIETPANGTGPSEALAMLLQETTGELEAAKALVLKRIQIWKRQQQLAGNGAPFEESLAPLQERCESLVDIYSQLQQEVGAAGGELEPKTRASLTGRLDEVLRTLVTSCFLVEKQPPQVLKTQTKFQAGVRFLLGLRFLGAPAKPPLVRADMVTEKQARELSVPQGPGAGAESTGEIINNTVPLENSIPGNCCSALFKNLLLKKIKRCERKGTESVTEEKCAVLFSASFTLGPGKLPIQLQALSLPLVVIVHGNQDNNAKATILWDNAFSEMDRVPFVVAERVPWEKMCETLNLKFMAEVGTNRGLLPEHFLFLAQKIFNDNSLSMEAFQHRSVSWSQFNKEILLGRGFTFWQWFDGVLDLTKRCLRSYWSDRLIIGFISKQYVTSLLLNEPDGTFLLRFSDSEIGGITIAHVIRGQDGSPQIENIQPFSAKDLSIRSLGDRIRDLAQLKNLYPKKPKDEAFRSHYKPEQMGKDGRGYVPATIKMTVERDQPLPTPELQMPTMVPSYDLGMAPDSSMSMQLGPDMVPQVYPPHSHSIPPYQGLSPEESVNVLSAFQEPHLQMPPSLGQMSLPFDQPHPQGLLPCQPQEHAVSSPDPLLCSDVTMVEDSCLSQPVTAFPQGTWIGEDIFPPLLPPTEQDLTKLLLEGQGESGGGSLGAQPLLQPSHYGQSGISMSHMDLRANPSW
How it was run: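 HaCaT cells stably carrying a NanoLuc reporter driven by the STAT6-responsive IL-13Ra2 promoter were preincubated with compounds for 2 h at 37 °C in 2% FBS medium. Cells were then stimulated with 0.12 nM IL-13 for 4 h, and luminescence was read after Nano-Glo substrate. Compounds ran as 11-point 4-fold dilutions in duplicate.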

| Compound | EC50 [nM] |
| --- | --- |
| Cc1noc(=O)n1-c1ccc(N2Cc3c(C(=O)NCc4ccc(NC(=O)N5CCN(C)CC5)cc4)nn(C(C)C)c3[C@@H](C)C2)cc1 [Example 656, (S)-1-isopropyl-7-methyl-5-(4-(3-methyl-5-oxo-1,2,4-oxadiazol-4(5H)-yl)phenyl)-N-(4-(4-methylpiperazine-1-carboxamido)benzyl)-4,5,6,7-tetrahydro-1H-pyrazolo[4,3-c]pyridine-3-carboxamide] | 2 |
| CC(C)n1nc(C(=O)NCc2ccc(NC(=O)N3CCN(C)CC3)cc2)c2c1[C@@H](C)CN(c1ccc3c(c1)OCCN(C)C3=O)C2 [Example 657, (S)-1-isopropyl-7-methyl-5-(4-methyl-5-oxo-2,3,4,5-tetrahydrobenzo[f][1,4]oxazepin-8-yl)-N-(4-(4-methylpiperazine-1-carboxamido)benzyl)-4,5,6,7-tetrahydro-1H-pyrazolo[4,3-c]pyridine-3-carboxamide] | 2 |
| CC(C)n1nc(C(=O)NCc2ccc(NC(=O)N3CCN(C)CC3)cc2)c2c1[C@@H](C)CN(c1ccc(-c3nncn3C)cn1)C2 [Example 658, (S)-1-isopropyl-7-methyl-5-(5-(4-methyl-4H-1,2,4-triazol-3-yl)pyridin-2-yl)-N-(4-(4-methylpiperazine-1-carboxamido)benzyl)-4,5,6,7-tetrahydro-1H-pyrazolo[4,3-c]pyridine-3-carboxamide] | 4 |
| CC(C)n1nc(C(=O)NCc2ccc(NC(=O)N3CCC4(CCN(C)CC4)CC3)c(F)c2)c2c1[C@@H](C)CN(c1ccc(C(=O)N(C)C)cc1)C2 [Example 660, (S)-N-(4-((5-(4-(dimethylcarbamoyl)phenyl)-1-isopropyl-7-methyl-4,5,6,7-tetrahydro-1H-pyrazolo[4,3-c]pyridine-3-carboxamido)methyl)-2-fluorophenyl)-9-methyl-3,9-diazaspiro[5.5]undecane-3-carboxamide] | 4 |
| CC(C)n1nc(C(=O)NCc2ccc(NC(=O)N(C)C)cc2)c2c1[C@@H](C)CN(c1ccc(C(=O)N(C)C[C@H]3[C@@H]4CN(C)C[C@@H]43)cc1)C2 [Example 661, (S)-N-(4-(3,3-dimethylureido)benzyl)-1-isopropyl-7-methyl-5-(4-(methyl(((1R,5S,6r)-3-methyl-3-azabicyclo[3.1.0]hexan-6-yl)methyl)carbamoyl)phenyl)-4,5,6,7-tetrahydro-1H-pyrazolo[4,3-c]pyridine-3-carboxamide] | 5 |
| CC(C)n1nc(C(=O)NCc2ccc(NC(=O)N(C)C)cc2)c2c1[C@@H](C)CN(c1ccc(C(=O)N(C)CC3CCN(Cc4ccccc4)CC3)cc1)C2 [Example 662, (S)-5-(4-(((1-benzylpiperidin-4-yl)methyl)(methyl)carbamoyl)phenyl)-N-(4-(3,3-dimethylureido)benzyl)-1-isopropyl-7-methyl-4,5,6,7-tetrahydro-1H-pyrazolo[4,3-c]pyridine-3-carboxamide] | 3 |
| CC(C)n1nc(C(=O)NCc2ccc(NC(=O)N3CCN(CCC(=O)O)CC3)c(F)c2)c2c1[C@@H](C)CN(c1ccc(C(=O)N(C)C)cc1)C2 [Example 669, (S)-3-(4-((4-((5-(4-(dimethylcarbamoyl)phenyl)-1-isopropyl-7-methyl-4,5,6,7-tetrahydro-1H-pyrazolo[4,3-c]pyridine-3-carboxamido)methyl)-2-fluorophenyl)carbamoyl)piperazin-1-yl)propanoic acid] | 201 |
| CC(C)n1nc(C(=O)NCc2ccc(NC(=O)N3CCN(C)CC3)cc2)c2c1[C@@H](C)CN(c1ccc(-n3ccnn3)cc1)C2 [Example 674, (S)-5-(4-(1H-1,2,3-triazol-1-yl)phenyl)-1-isopropyl-7-methyl-N-(4-(4-methylpiperazine-1-carboxamido)benzyl)-4,5,6,7-tetrahydro-1H-pyrazolo[4,3-c]pyridine-3-carboxamide] | 0.2 |
| CC(C)n1nc(C(=O)NCc2ccc(NC(=O)N(C)C)cc2)c2c1[C@@H](C)CN(c1ccc(C(=O)N3CCN4CCC[C@@H]4C3)cc1)C2 [Example 675, (S)-N-(4-(3,3-dimethylureido)benzyl)-1-isopropyl-7-methyl-5-(4-((R)-octahydropyrrolo[1,2-a]pyrazine-2-carbonyl)phenyl)-4,5,6,7-tetrahydro-1H-pyrazolo[4,3-c]pyridine-3-carboxamide] | 34 |
| CC(C)n1nc(C(=O)NCc2ccc(NC(=O)N(C)C)cc2)c2c1[C@@H](C)CN(c1ccc(C(=O)N3Cc4cccnc4C3)cc1)C2 [Example 676, (S)-5-(4-(6,7-dihydro-5H-pyrrolo[3,4-b]pyridine-6-carbonyl)phenyl)-N-(4-(3,3-dimethylureido)benzyl)-1-isopropyl-7-methyl-4,5,6,7-tetrahydro-1H-pyrazolo[4,3-c]pyridine-3-carboxamide] | 0.3 |

Other lines, results leading:

| EC50 [nM] | Compound |
| --- | --- |
| 8 | CC(C)n1nc(C(=O)NCc2ccc(NC(=O)N3CC(C)(N(C)C)C3)c(F)c2)c2c1[C@@H](C)CN(c1ccc(C(=O)N(C)C)cc1)C2 [Example 659, (S)-N-(4-(3-(dimethylamino)-3-methylazetidine-1-carboxamido)-3-fluorobenzyl)-5-(4-(dimethylcarbamoyl)phenyl)-1-isopropyl-7-methyl-4,5,6,7-tetrahydro-1H-pyrazolo[4,3-c]pyridine-3-carboxamide] |
| 3 | CC(C)n1nc(C(=O)NCc2ccc(NC(=O)N3CC[C@@H](N(C)C)C3)c(F)c2)c2c1[C@@H](C)CN(c1ccc(C(=O)N(C)C)cc1)C2 [Example 678, (S)-N-(4-((R)-3-(dimethylamino)pyrrolidine-1-carboxamido)-3-fluorobenzyl)-5-(4-(dimethylcarbamoyl)phenyl)-1-isopropyl-7-methyl-4,5,6,7-tetrahydro-1H-pyrazolo[4,3-c]pyridine-3-carboxamide] |
| 3 | CC(C)n1nc(C(=O)NCc2ccc(NC(=O)N3CCC(C)(N(C)C)C3)c(F)c2)c2c1[C@@H](C)CN(c1ccc(C(=O)N(C)C)cc1)C2 (stereo partly drawn) [Example 679, (7S)-N-(4-(3-(dimethylamino)-3-methylpyrrolidine-1-carboxamido)-3-fluorobenzyl)-5-(4-(dimethylcarbamoyl)phenyl)-1-isopropyl-7-methyl-4,5,6,7-tetrahydro-1H-pyrazolo[4,3-c]pyridine-3-carboxamide] |
| 2 | CC(C)n1nc(C(=O)NCc2ccc(NC(=O)N3CCN(C)[C@@H](C)C3)c(F)c2)c2c1[C@@H](C)CN(c1ccc(C(=O)N(C)C)cc1)C2 [Example 680, (S)-5-(4-(dimethylcarbamoyl)phenyl)-N-(4-((S)-3,4-dimethylpiperazine-1-carboxamido)-3-fluorobenzyl)-1-isopropyl-7-methyl-4,5,6,7-tetrahydro-1H-pyrazolo[4,3-c]pyridine-3-carboxamide] |
| 3 | CC(C)n1nc(C(=O)NCc2ccc(NC(=O)N3CC[C@@H](CN(C)C)C3)c(F)c2)c2c1[C@@H](C)CN(c1ccc(C(=O)N(C)C)cc1)C2 [Example 681, (S)-N-(4-((S)-3-((dimethylamino)methyl)pyrrolidine-1-carboxamido)-3-fluorobenzyl)-5-(4-(dimethylcarbamoyl)phenyl)-1-isopropyl-7-methyl-4,5,6,7-tetrahydro-1H-pyrazolo[4,3-c]pyridine-3-carboxamide] |
| 4 | CC(C)n1nc(C(=O)NCc2ccc(NC(=O)N3CCC[C@@H](N(C)C)C3)c(F)c2)c2c1[C@@H](C)CN(c1ccc(C(=O)N(C)C)cc1)C2 [Example 682, (S)-N-(4-((R)-3-(dimethylamino)piperidine-1-carboxamido)-3-fluorobenzyl)-5-(4-(dimethylcarbamoyl)phenyl)-1-isopropyl-7-methyl-4,5,6,7-tetrahydro-1H-pyrazolo[4,3-c]pyridine-3-carboxamide] |
| 3 | CC(C)n1nc(C(=O)NCc2ccc(NC(=O)N3CCC[C@H](N(C)C)C3)c(F)c2)c2c1[C@@H](C)CN(c1ccc(C(=O)N(C)C)cc1)C2 [Example 683, (S)-N-(4-((S)-3-(dimethylamino)piperidine-1-carboxamido)-3-fluorobenzyl)-5-(4-(dimethylcarbamoyl)phenyl)-1-isopropyl-7-methyl-4,5,6,7-tetrahydro-1H-pyrazolo[4,3-c]pyridine-3-carboxamide] |
| 2 | CC(C)n1nc(C(=O)NCc2ccc(NC(=O)N3CC[C@H](CN(C)C)C3)c(F)c2)c2c1[C@@H](C)CN(c1ccc(C(=O)N(C)C)cc1)C2 [Example 684, (S)-N-(4-((R)-3-((dimethylamino)methyl)pyrrolidine-1-carboxamido)-3-fluorobenzyl)-5-(4-(dimethylcarbamoyl)phenyl)-1-isopropyl-7-methyl-4,5,6,7-tetrahydro-1H-pyrazolo[4,3-c]pyridine-3-carboxamide] |
